In patent US20260347372A1, “SMALL MOLECULE INHIBITORS OF KRAS G12D MUTANT” (MERCK SHARP & DOHME LLC, priority 2023, published 2026):

Tests used:
Assay type in all cases: biochemical
KRAS G12C = molecular target: T1, KRAS G12C (Homo sapiens, UniProt P01116, G12C); experiment: SOS-catalyzed nucleotide exchange assay, KRAS G12C (Procedure B; Example 14); conditions: 1 hour compound incubation, SOS1 and GMPPNP 30 minutes, read-out: KRAS G12C GNE IC50
T1 construct: KRAS G12C (amino acids 1-169, N-terminal His-tag); made in house; host or cells: E. coli
T1 sequence (P01116 with tags, fused parts or gaps isoform P01116-2 G12C): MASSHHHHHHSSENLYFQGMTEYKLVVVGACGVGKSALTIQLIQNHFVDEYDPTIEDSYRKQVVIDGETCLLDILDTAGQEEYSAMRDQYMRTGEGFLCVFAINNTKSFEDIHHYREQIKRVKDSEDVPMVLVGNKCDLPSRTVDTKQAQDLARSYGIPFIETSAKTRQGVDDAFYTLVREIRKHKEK
Experimental: (§1) Procedure for SOS-Catalyzed Nucleotide Exchange Assay for KRAS-G12C/D/V/WT (Procedure B)
(§2) Recombinant KRAS G12C (amino acids 1-169, SEQ ID NO:9), KRAS G12D (amino acids 1-169, SEQ ID NO:10), KRAS G12V (amino acids 1-169, SEQ ID NO:11), KRAS WT (amino acids 1-169, SEQ ID NO:12) and SOS1 (amino acids 564-1049, SEQ ID NO:13) proteins were expressed in E. coli and purified by affinity chromatography. To prepare each BODIPY™ FL GDP-bound KRAS protein, 50 μM KRAS proteins were incubated with 0.5 mM BODIPY™ FL GDP (Invitrogen, G22360) in a loading buffer (20 mM Tris-HCl pH 7.5, 50 mM NaCl, 1 mM DTT and 2.5 mM EDTA) for 1 hour on ice. After the incubation, MgCl2 was added to a final concentration of 10 mM, followed by an incubation at room temperature for 30 minutes. The mixtures were allowed to pass through a NAP-5 column to remove free nucleotides and purified BODIPY™ FL GDP-bound KRAS G12C, G12D, G12V and WT proteins were used for compound evaluation.
(§3) The inhibitory activity of compounds on recombinant KRAS is measured by the displacement of the bound BODIPY™ GDP. […] Displacement of BODIPY™ FL GDP by Guanosine-5′-[(β,γ)-imido]triphosphate, Tetralithium salt (GMPPNP) was measured by calculating the ratio of fluorescence intensities of BODIPY™ FL before and after the exchange reaction. […] Dose response curves were analyzed using a 4-parameter logistic model to calculate IC50 values. […]

KRAS G12V = KRAS G12V (Homo sapiens, UniProt P01116, G12V); experiment: SOS-catalyzed nucleotide exchange assay, KRAS G12V (Procedure B; Example 14); design: KRAS G12V (amino acids 1-169, N-terminal His-tag); made in house; host or cells: E. coli; conditions: 1 hour compound incubation, SOS1 and GMPPNP 30 minutes, read-out: KRAS G12V GNE IC50
Sequence of KRAS G12V (P01116 with tags, fused parts or gaps isoform P01116-2 G12V): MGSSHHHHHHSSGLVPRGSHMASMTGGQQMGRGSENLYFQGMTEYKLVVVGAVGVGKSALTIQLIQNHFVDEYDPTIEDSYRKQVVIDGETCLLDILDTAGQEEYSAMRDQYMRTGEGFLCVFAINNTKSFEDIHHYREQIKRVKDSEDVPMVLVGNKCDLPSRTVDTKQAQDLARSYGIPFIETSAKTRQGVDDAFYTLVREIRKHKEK
Experimental: as §1, §2, §3

KRAS WT = KRAS WT (Homo sapiens, UniProt P01116); experiment: SOS-catalyzed nucleotide exchange assay, KRAS WT (Procedure B; Example 14); design: KRAS WT (amino acids 1-169, N-terminal His-tag); made in house; host or cells: E. coli; conditions: 1 hour compound incubation, SOS1 and GMPPNP 30 minutes, read-out: KRAS WT GNE IC50
Sequence of KRAS WT (P01116 with tags, fused parts or gaps isoform P01116-2): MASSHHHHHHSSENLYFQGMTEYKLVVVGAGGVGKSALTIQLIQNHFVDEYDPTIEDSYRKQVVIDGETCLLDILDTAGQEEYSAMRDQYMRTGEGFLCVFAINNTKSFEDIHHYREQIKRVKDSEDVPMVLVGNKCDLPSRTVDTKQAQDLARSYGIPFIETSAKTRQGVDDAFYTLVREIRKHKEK
Experimental: as §1, §2, §3

KRAS G12D = KRAS G12D (Homo sapiens, UniProt P01116, G12D); experiment: SOS-catalyzed nucleotide exchange assay, KRAS G12D (Procedure B; Example 14); design: KRAS G12D (amino acids 1-169, N-terminal His-tag); made in house; host or cells: E. coli; conditions: 1 hour compound incubation, SOS1 and GMPPNP 30 minutes, read-out: KRAS G12D GNE IC50
Sequence of KRAS G12D (P01116 with tags, fused parts or gaps isoform P01116-2 G12D): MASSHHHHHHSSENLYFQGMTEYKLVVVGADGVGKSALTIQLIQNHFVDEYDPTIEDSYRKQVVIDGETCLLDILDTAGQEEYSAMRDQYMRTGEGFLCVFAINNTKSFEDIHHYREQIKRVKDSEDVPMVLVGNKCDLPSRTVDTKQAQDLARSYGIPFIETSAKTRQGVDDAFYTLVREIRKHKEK
Experimental: as §1, §2, §3

Q: How did the IC50 (KRAS G12C) turn out when `FC(F)c1ccc2[nH]ncc2c1-c1nccc2c1sc1nc(OC[C@@]34CCCN3C[C@H](F)C4)nc(N3C[C@H]4CC[C@@H](C3)N4)c12` [Ex-14, 4-((1R,5S)-3,8-diazabicyclo[3.2.1]octan-3-yl)-8-(5-(difluoromethyl)-1H-indazol-4-yl)-2-(((2R,7aS)-2-fluorotetrahydro-1H-pyrrolizin-7a(5H)-yl)methoxy)pyrido[4′,3′:4,5]thieno [2,3-d]pyrimidine] was run?
A: The IC50 was greater than 5 µM.

Q: What about the IC50 (KRAS G12V) of the same compound?
A: The IC50 was greater than 5 µM.

Q: And the IC50 (KRAS WT)?
A: Its IC50 is greater than 5 µM.

Q: What about the IC50 (KRAS G12D) of the same compound?
A: The IC50 was 110 nM.
